Test: DPPH radical scavenging antioxidant test
Format: biochemical
Details: for Inhibition (radical scavenging inhibition) / A (absorbance): DPPH 0.2 mL (0.75 mM), compound 3 μM in ethanol, 30 min incubation in the dark; for A (absorbance): read at 517 nm against a blank
Protocol: The antioxidant properties of the 8-(4-methoxybenzylideneamino)naphthalene-1,3-disulfonic acid were studied by adding 0.2 mL DPPH (0.75 mM)) to compound 8-(4-methoxybenzylideneamino) naphthalene-1,3 -di sulfonic acid (III) (3 μM) in ethanol. After 30 min of incubation in the dark, the absorbance was read against a blank at 517 nm. Ascorbic acid (vitamin C) was used as standard antioxidants (positive control). A blank sample was prepared by 0.2 ml of DPPH in 3 ml ethanol. A negative control sample was run using ethanol instead of the sample. The radical scavenging inhibition was calculated using the following equation: […]

SMILES | Inhibition (radical scavenging inhibition) (517 nm) | A (absorbance) | antioxidant potential (DPPH), in words (DPPH in vitro test, 517 nm, vitamin C as positive control)
COc1ccc(/C=N/c2cccc3cc(S(=O)(=O)O)cc(S(=O)(=O)O)c23)cc1 [Product III, 8-(4-methoxybenzylideneamino)naphthalene-1,3-disulfonic acid] | 50% | 0.22 | high potential as an antioxidant compared to vitamin C
O=C1O[C@H]([C@@H](O)CO)C(O)=C1O [vit c, Ascorbic acid, reference compound] | 74% | 0.12 | 

Source: US11926579B1, “8-(4-methoxybenzylideneamino)naphthalene-1,3-disulfonic acid as an antioxidant compound” (KING FAISAL UNIVERSITY, priority 2023, dated 2024)
